The subject of series [1] is K562. Nature of the series: Cytotoxicity against human K562 cells assessed as cell growth inhibition at 30 uM by MTT assay relative to control. The note with it: read-out: GI. The class given is functional. (In general: Formazan colour is commonly taken as a measure of viable cells.)
The nature of series [2]: Cytotoxicity against human L02 cells assessed as cell growth inhibition at 30 uM by SRB assay relative to control. The note with it: read-out: GI. The series is classed as cell-based.
Series [3] relates to ASPC1. Briefly: Cytotoxicity against human ASPC1 cells assessed as cell growth inhibition at 30 uM by SRB assay relative to control. The class given is functional. The note with it: read-out: GI.
Series [4] relates to MDA-MB-231. Briefly: Cytotoxicity against human MDA-MB-231 cells assessed as cell growth inhibition at 30 uM by SRB assay relative to control. The series is classed as functional. The note with it: read-out: GI. On the technique in general: Sulforhodamine B stains cellular protein and so reports cell mass.
The test system of series [5] is Bacillus cereus. Nature of the series: Antibacterial activity against Bacillus cereus assessed as reduction in bacterial growth. The class given is functional. The note with it: time 24 hrs.
Series [6] relates to Proteus sp. Briefly: Antibacterial activity against Proteus sp. assessed as reduction in bacterial growth. The class given is functional. The note with it: Proteus sp. (in: enterobacteria); time 24 hrs.
Series [7] concerns Staphylococcus aureus. Briefly: Antibacterial activity against methicillin-resistant Staphylococcus aureus assessed as reduction in bacterial growth. The series is classed as functional. The note with it: time 24 hrs.
Series [8] deals with Bacillus subtilis. Nature of the series: Antibacterial activity against Bacillus subtilis assessed as reduction in bacterial growth. The class given is functional. The note with it: time 24 hrs.
Series [9] relates to Escherichia coli. Briefly: Antibacterial activity against Escherichia coli assessed as reduction in bacterial growth. The series is classed as functional. The note with it: time 24 hrs.
The test system of series [10] is Mycolicibacterium phlei. Briefly: Antibacterial activity against Mycobacterium phlei assessed as reduction in bacterial growth. The series is classed as functional. The note with it: time 24 hrs.
Series [11] deals with Vibrio parahaemolyticus. Nature of the series: Antibacterial activity against Vibrio parahaemolyticus assessed as reduction in bacterial growth. The series is classed as functional. The note with it: time 24 hrs.
The subject of series [12] is Staphylococcus aureus. Nature of the series: Potency index, ratio of ciprofloxacin MIC to test compound MIC for methicillin-resistant Staphylococcus aureus. The class given is functional.

Values after ≈ are worked out from the molar mass of the structure shown.

Consider `COC(=O)CSC1=C(c2ccc(OC)cc2)C(=O)C(OC)=C(c2ccc(OC)cc2)C1=O`, for which the inhibition of growth at 30 µM in [1], in [3] and in series [4] was less than 50% throughout. Also, in [2], the inhibition at 30 µM was less than 50%.
With `COC(=O)CCSC1=C(c2ccc(OC)cc2)C(=O)C(OC)=C(c2ccc(OC)cc2)C1=O`, the MIC was greater than 50 µM in [5]; 12 µM (≈ 5.62 µg/mL) in series [6]; 6.2 µM (≈ 2.9 µg/mL) in series [7]; 12 µM (≈ 5.62 µg/mL) in series [8]; greater than 50 µM in series [9]; greater than 50 µM in series [10]. Also, in series [11], the MIC is greater than 50 µM. Also, the inhibition of growth at 30 µM in series [1], in series [3] and in series [4] was less than 50% each time. For the same compound, in series [2], the inhibition at 30 µM is less than 50%. The Ratio in series [12] came out at 8.
As to `COC1=C(c2ccc(OC)cc2)C(=O)C(N)=C(c2ccc(OC)cc2)C1=O`, the inhibition of growth at 30 µM in [1], in series [3] and in series [4] was less than 50% throughout. For the same compound, the inhibition at 30 µM in [2] was less than 50%.
In the case of `COC1=C(c2ccc(OC)cc2)C(=O)C(SC)=C(c2ccc(OC)cc2)C1=O`, the inhibition of growth at 30 µM in series [1], in series [3] and in series [4] was less than 50% each time. Besides, the inhibition at 30 µM in series [2] is less than 50%.
With `COc1ccc(-c2c(OC)c(O)c(-c3ccc(OC)cc3)c3sc(-c4nccs4)nc23)cc1`, the minimal inhibitory concentration (MIC) is 1.5 µM (≈ 0.715 µg/mL) in [5]; 3.1 µM (≈ 1.48 µg/mL) in series [6]; greater than 50 µM in series [7]; 3.1 µM (≈ 1.48 µg/mL) in series [8]; 3.1 µM (≈ 1.48 µg/mL) in series [9]; 6.2 µM (≈ 2.95 µg/mL) in series [10]. Also, the minimal inhibitory concentration (MIC) in series [11] was determined as 6.2 µM (≈ 2.95 µg/mL). Also, the inhibition of growth at 30 µM in series [1], in series [3] and in [4] was less than 50% each time. Moreover, in series [2], the inhibition at 30 µM was less than 50%.
On to `O=C(O)c1cn(C2CC2)c2cc(N3CCNCC3)c(F)cc2c1=O` [CIPROFLOXACIN], for which the MIC worked out at 1.5 µM (≈ 0.497 µg/mL) in series [5]; 1.5 µM (≈ 0.497 µg/mL) in series [6]; 50 µM (≈ 16.6 µg/mL) in [7]; 0.39 µM (≈ 0.129 µg/mL) in series [8]; 0.78 µM (≈ 0.258 µg/mL) in [9]; 0.78 µM (≈ 0.258 µg/mL) in series [10]. For the same compound, the MIC in series [11] stood at 0.39 µM (≈ 0.129 µg/mL).

Usually MIC stands for the lowest concentration that inhibits growth of the organism.

The record behind these values is ChEMBL document CHEMBL4837184, “Antibacterial p-Terphenyl with a Rare 2,2'-Bithiazole Substructure and Related Compounds Isolated from the Marine-Derived Actinomycete Nocardiopsis sp. HDN154086” (J Nat Prod, 2021).
